PMC9785688 (Pharmaceutics, 2022)
Read-outs that look alike come from different tables or passages of the source.

Key:
[1] = rodents, at 30 min, microdose; cited from earlier work
[2] = parameters: method as in PMID 30630940; conditions: humans, at 30 min, microdose; cited from earlier work
[3] = target: T1, P-glycoprotein (P-gp) function at the blood-brain barrier (BBB) (Rattus norvegicus, UniProt Q6PSM0); assay: [^11C]metoclopramide brain PET imaging with kinetic modelling (Logan plot) in rats; assay type: in vivo; conditions: oral pretreatment of healthy Sprague Dawley rats (CBZ 45 mg/kg twice a day for 7 days; RIT 20 mg/kg 3 h before PET)
T1 construct: Kinetic modeling was performed to estimate the impact of these drugs on P-gp function at the BBB; from tissue; host or cells: blood-brain barrier (brain) of living Sprague Dawley rats, in vivo PET
T1 sequence (Q6PSM0 1-1272): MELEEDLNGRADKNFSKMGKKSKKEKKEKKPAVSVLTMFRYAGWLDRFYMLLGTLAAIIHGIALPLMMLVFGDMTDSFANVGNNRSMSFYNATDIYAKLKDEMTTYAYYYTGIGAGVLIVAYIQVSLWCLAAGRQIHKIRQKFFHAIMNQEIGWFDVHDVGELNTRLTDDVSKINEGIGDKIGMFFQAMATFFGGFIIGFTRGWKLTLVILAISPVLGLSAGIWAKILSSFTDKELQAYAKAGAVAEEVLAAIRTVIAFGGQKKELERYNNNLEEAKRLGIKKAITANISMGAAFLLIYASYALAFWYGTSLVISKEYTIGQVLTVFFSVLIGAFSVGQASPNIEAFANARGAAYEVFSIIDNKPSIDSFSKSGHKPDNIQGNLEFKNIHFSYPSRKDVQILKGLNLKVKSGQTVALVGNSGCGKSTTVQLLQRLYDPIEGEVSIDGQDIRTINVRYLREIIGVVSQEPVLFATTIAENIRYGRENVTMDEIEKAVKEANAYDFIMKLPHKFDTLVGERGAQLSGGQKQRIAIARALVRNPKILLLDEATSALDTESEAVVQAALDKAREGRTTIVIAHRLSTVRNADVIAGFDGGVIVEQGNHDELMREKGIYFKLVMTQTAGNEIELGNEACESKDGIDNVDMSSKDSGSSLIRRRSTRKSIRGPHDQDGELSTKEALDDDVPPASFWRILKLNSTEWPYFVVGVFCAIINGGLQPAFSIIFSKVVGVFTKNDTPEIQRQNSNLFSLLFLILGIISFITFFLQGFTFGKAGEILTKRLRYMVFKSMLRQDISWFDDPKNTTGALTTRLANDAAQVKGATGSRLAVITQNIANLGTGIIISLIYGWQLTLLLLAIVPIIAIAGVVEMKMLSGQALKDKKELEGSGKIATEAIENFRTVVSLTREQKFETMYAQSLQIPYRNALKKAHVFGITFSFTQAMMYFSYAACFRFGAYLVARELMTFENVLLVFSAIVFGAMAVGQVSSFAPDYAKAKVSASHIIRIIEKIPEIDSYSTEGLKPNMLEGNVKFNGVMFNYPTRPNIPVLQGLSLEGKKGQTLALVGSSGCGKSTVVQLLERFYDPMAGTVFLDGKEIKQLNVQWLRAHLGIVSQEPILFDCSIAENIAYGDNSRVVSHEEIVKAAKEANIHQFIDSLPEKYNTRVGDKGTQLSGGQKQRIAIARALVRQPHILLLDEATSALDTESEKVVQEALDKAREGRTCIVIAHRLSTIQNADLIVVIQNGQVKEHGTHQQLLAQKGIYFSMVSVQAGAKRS
Method: In animals of the CBZ group (n = 4), CBZ suspension was administered by oral gavage at a dose of 45 mg/kg, twice a day (8 A.M and 5 P.M) for 7 days before the PET imaging. Each animal received a total of 14 doses of CBZ before the PET experiment.
A RIT suspension (10 mg/mL) was freshly prepared prior to oral administration by adding 100 mg of RIT powder to 9.4 mL of water for injection. Animals of the RIT group (n = 4) received a single dose of 20 mg/kg of RIT 3 hours before the PET experiment.
PET acquisitions were performed in Baseline, CBZ and RIT pretreated animals (n = 4 per condition) using an Inveon microPET scanner (Siemens, Knoxville, TN, USA). Anesthesia was induced and thereafter maintained using 3.5% and 1.5–2.5% isoflurane in O2, respectively.
Images were reconstructed with the Fourier rebinning algorithm and the 3-dimensional ordered-subset expectation-maximization algorithm, including normalization, attenuation, scatter, and random corrections. […] Radioactivity was corrected for ^11C decay and expressed as standardized uptake value (SUV, unitless) after correction for injected dose and animal weight. […]
Kinetic modeling was also performed using PMOD software. […] Each individual IDIF was corrected by a group-specific, average whole-blood/plasma radioactivity ratio which was obtained from the arterial blood samples collected in the separate groups of animals (see above).

P-gp = conditions: cited from earlier work

Effect on P-gp function at the BBB (from [^11C]metoclopramide PET) [3] | SMILES | Fraction of parent [^11C]metoclopramide [1] | Fraction of parent [^11C]metoclopramide [2] | P-gp inhibition in vitro (P-gp)
– | CCN(CC)CCNC(=O)c1cc(Cl)c(N)cc1O[11CH3] [[^11C]metoclopramide] | ~ 10% | ~ 60% | –
apparently behaving as an inhibitor | CC(C)c1nc(CN(C)C(=O)N[C@H](C(=O)N[C@@H](Cc2ccccc2)C[C@H](O)[C@H](Cc2ccccc2)NC(=O)OCc2cncs2)C(C)C)cs1 [RIT, ritonavir] | – | – | potent P-gp inhibitor
does not substantially induce or inhibit | NC(=O)N1c2ccccc2C=Cc2ccccc21 [CBZ, carbamazepine] | – | – | –
